Results from PubChem BioAssay (NCI).
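The compound was tested at five concentrations on cells cultured in 96-well plates, with a 48-hour exposure period. At the GI50, growth is halved. TGI denotes the concentration required for complete inhibition of growth.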

How the values were obtained:
Experiment in all cases: inhibition of tumour cell growth, NCI panel, 48 h
[1] = system: UO-31 renal
[2] = system: OVCAR-8 ovarian
[3] = system: T-47D breast
[4] = system: M14 melanoma
[5] = system: NCI-H23 lung
[6] = system: HCT-116 colon
[7] = system: SF-295 CNS
[8] = system: HCT-15 colon
[9] = system: MCF7 breast
[10] = system: SN12C renal
[11] = system: COLO 205 colon
[12] = system: SW-620 colon

Row | SMILES | TGI [1] [µM] | TGI [2] [µM] | TGI [3] [µM] | TGI [4] [µM] | TGI [5] [µM] | TGI [6] [µM] | TGI [7] [µM] | TGI [8] [µM] | TGI [9] [µM] | TGI [10] [µM] | TGI [11] [µM] | TGI [12] [µM] | GI50 [1] [nM] | GI50 [3] [nM] | GI50 [5] [nM] | GI50 [8] [nM] | GI50 [9] [nM] | GI50 [10] [nM] | GI50 [11] [nM] | GI50 [12] [nM]
1 | COc1cc(C2S/C(=C/c3ccccc3)C(=O)N2c2ccccc2Cl)cc(OC)c1OC (stereo unspecified) | > 100 | 49.8 | 32.1 | 60.5 | > 100 | 62.6 | > 100 | > 100 | > 100 | 62.1 | > 100 | – | – | – | – | – | – | – | – | –
2 | O=C(O)CN=c1c2ccccc2n(O)c2ccccc12 | > 100 | > 100 | – | > 100 | > 100 | > 100 | > 100 | > 100 | – | > 100 | > 100 | > 100 | – | – | – | – | – | – | – | –
3 | NC(=S)N/N=C/c1ccc(OC(=O)COc2ccccc2Cl)cn1 | 98.5 | > 100 | – | – | > 70.5 | > 90 | > 100 | > 100 | > 100 | > 100 | > 100 | > 100 | – | – | – | – | – | – | – | –
4 | COc1cc(Cc2ccc3c(c2C#N)N(C)c2ccccc2S3)cc(OC)c1OC | > 100 | > 100 | – | > 100 | > 100 | > 100 | > 100 | 61.3 | – | > 100 | > 100 | > 100 | – | – | – | – | – | – | – | –
5 | C/C(=N\NC(=S)Nc1ccc(Cl)cc1)c1nc2ncccc2[nH]1 | 5.13 | – | 20.9 | 6.54 | 21.5 | 13 | 13.5 | 14.5 | 11.2 | 31.4 | 17.5 | 35.5 | – | – | – | – | – | – | – | –
6 | C/C([O-])=C(/c1nc(-c2ccc([N+](=O)[O-])o2)no1)[n+]1cc(C)ccc1C | 40 | > 76.6 | – | – | 24.9 | 18.5 | 24.1 | 22.3 | 16.2 | 29.3 | 15 | 16.9 | – | – | – | – | – | – | – | –
7 | BrC1=CN2C[n+]3cc(Br)c4ccccc4c3N=C2c2ccccc21 | > 100 | 38.6 | 18.8 | 18.4 | 56.4 | – | 21.5 | > 100 | 21.5 | 50.4 | 23.1 | > 100 | – | – | – | – | – | – | – | –
8 | Cc1nc(N(CCO)CCO)c2sc(=S)n(-c3ccccc3)c2n1 | > 100 | > 100 | – | – | > 100 | > 100 | > 100 | – | – | – | > 100 | > 100 | – | – | – | – | – | – | – | –
9 | Cc1ncc(CO)c(C=NCCCCCCN=Cc2c(CO)cnc(C)c2O)c1O | > 100 | > 100 | > 100 | > 100 | > 100 | > 100 | > 100 | > 100 | > 100 | > 100 | > 100 | > 100 | – | – | – | – | – | – | – | –
10 | COC(=O)C1=C(O)C(C(=O)OC)[C@@]2(O)[C@@H](C(=O)OC)CC[C@@H]1[C@@H]2C(=O)OC (stereo partly specified) | > 100 | – | > 100 | 62.6 | 56.6 | > 100 | – | 64.2 | > 100 | > 100 | – | – | – | – | – | – | – | – | – | –
11 | COc1cc2nc(N3CCC[C@@H](NC4=CC(=O)c5ccccc5C4=O)C3)nc(N)c2cc1OC | 3.25 | – | 3.74 | – | 4.3 | – | – | 6.02 | 3.39 | 3.44 | 3.55 | 3.36 | 1620 | 1950 | 1990 | 2310 | 1710 | 1730 | 1930 | 1590
